Values quoted from earlier work in patent publication US9895325B2, “Tablet composition comprising cinacalcet hydrochloride” (SYNTHON B.V., priority 2012, dated 2018).

Conditions: pH 1

## C[C@@H](NCCCc1cccc(C(F)(F)F)c1)c1cccc2ccccc12.Cl [Cinacalcet hydrochloride]
  solubility: approx. 0.1 mg/ml
